Experimental data reported in article PMC6006475 (2016).

Tests used:
[1] = test system: c-MYC-(A) (DNA, G4) TGAGGGTGGGTAGGGTGGGTAA; assay: FRET melting; conditions: 0.2 µM BTC, SD ±5%
[2] = test system: h-TELO-(A) (DNA, G4) GGGTTAGGGTTAGGGTTAGGG; assay: FRET melting; conditions: 0.4 µM BTC, SD ±5%
[3] = test system: ds DNA (DNA, hairpin, HEG (hexaethylene glycol) linker between 10 and 11) TATAGCTATATATAGCTATA; assay: FRET melting; conditions: 1 µM BTC, highest tested
[4] = test system: c-MYC-(D) (DNA, G4) TGAGGGTGGGTAGGGTGGGTAA; assay: 1H NMR titration (imino region); conditions: 25 mM Tris-HCl, pH 7.4, 298 K, 100 µM DNA, binds minor conformation
[5] = test system: h-TELO-(D) (DNA, G4) GGGTTAGGGTTAGGGTTAGGG; assay: 1H NMR titration (imino region); conditions: 25 mM Tris-HCl, pH 7.4, 298 K, 100 µM DNA
[6] = K+ (50 mM potassium cacodylate), pH 7.4, pre-annealed
[7] = none (K+-free, MQ water), pH ~7

**Q.** Which results are given for CN(C)CCCNC(=O)c1ccc(-n2cc(-c3ccc4[nH]c5ccc(-c6cn(-c7ccc(C(=O)NCCCN(C)C)cc7)nn6)cc5c4c3)nn2)cc1?
**A.** ΔTm [1, 6]: 24.0 °C; ΔTm [1, 7]: 23.5 °C; ΔTm [2, 6]: 38.7 °C; ΔTm [2, 7]: 38.5 °C; ΔTm ([3]; K+ (50 mM potassium cacodylate), pH 7.4): 3 °C; ΔTm [3, 7]: 2.9 °C; binding ([4]; K+ (100 mM KCl)): yes; binding ([4]; none (K+-free)): yes; binding ([5]; K+ (100 mM KCl), weak shift perturbations): yes; binding ([5]; none (K+-free), partial folding promoted): yes
